Laboratory results as given in the supplement of paper PMC10307832.

What was measured:
Experiment in all cases: relative viability (nuclei count vs DMSO), 5 days (fraction); higher = more cells survive
[1] = compound: COc1cc2ncn(-c3cc(OCc4ccccc4C(F)(F)F)c(C(N)=O)s3)c2cc1OC + CCNC(=O)c1noc(-c2cc(C(C)C)c(O)cc2O)c1-c1ccc(CN2CCOCC2)cc1 [Luminespib] (partner 0.01 µM)
Summary of the method: (§1)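 Relative viability is defined as nuclei in treated wells over nuclei in vehicle wells. Duplicate plates were run and medians reported. Lung cancer cell lines in 1536-well plates were dosed by pin tool one day after seeding, with one drug or with a fixed anchor-drug dose plus five library-drug doses (not always all listed) in √10 steps, and nuclei were counted after 5 days.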

[2] = compound: COc1cc2ncn(-c3cc(OCc4ccccc4C(F)(F)F)c(C(N)=O)s3)c2cc1OC + CC(C)C[C@H](NC(=O)[C@H](Cc1ccccc1)NC(=O)c1cnccn1)B(O)O [Bortezomib] (partner 0.002 µM)
Summary of the method: as §1

[3] = compound: COc1cc2ncn(-c3cc(OCc4ccccc4C(F)(F)F)c(C(N)=O)s3)c2cc1OC + Cc1nc(Nc2ncc(C(=O)Nc3c(C)cccc3Cl)s2)cc(N2CCN(CCO)CC2)n1 [Dasatinib] (partner 0.075 µM)
Summary of the method: as §1

[4] = compound: COc1cc2ncn(-c3cc(OCc4ccccc4C(F)(F)F)c(C(N)=O)s3)c2cc1OC + CC(=O)c1c(C)c2cnc(Nc3ccc(N4CCNCC4)cn3)nc2n(C2CCCC2)c1=O [Palbociclib] (partner 0.5 µM)
Summary of the method: as §1

Cell Line | relative viability ([1]; first compound 0.05 µM) | relative viability ([1]; first compound 0.1581 µM) | relative viability ([1]; first compound 0.5 µM) | relative viability ([1]; first compound 1.581 µM) | relative viability ([1]; first compound 5 µM) | relative viability ([2]; first compound 0.05 µM) | relative viability ([2]; first compound 0.1581 µM) | relative viability ([2]; first compound 0.5 µM) | relative viability ([2]; first compound 1.581 µM) | relative viability ([2]; first compound 5 µM) | relative viability ([3]; first compound 0.05 µM) | relative viability ([3]; first compound 0.1581 µM) | relative viability ([3]; first compound 0.5 µM) | relative viability ([3]; first compound 1.581 µM) | relative viability ([3]; first compound 5 µM) | relative viability ([4]; first compound 0.05 µM) | relative viability ([4]; first compound 0.1581 µM) | relative viability ([4]; first compound 0.5 µM) | relative viability ([4]; first compound 1.581 µM) | relative viability ([4]; first compound 5 µM)
NCI-H1915 | 0.796 | 0.713 | 0.389 | 0.0805 | 0.0432 | 1.04 | 0.925 | 0.853 | 0.107 | 0.0772 | 0.365 | 0.281 | 0.316 | 0.0798 | 0.0572 | 0.456 | 0.493 | 0.347 | 0.114 | 0.0905
NCI-H3122 | 0.0893 | 0.0896 | 0.149 | 0.0746 | 0.0906 | 1.05 | 0.951 | 0.709 | 0.183 | 0.227 | 0.895 | 0.562 | 0.373 | 0.125 | 0.0999 | 0.189 | 0.202 | 0.148 | 0.14 | 0.13
NCI-H1651 | 1.15 | 0.858 | 0.36 | 0.137 | 0.109 | 1.05 | 0.9 | 0.994 | 0.708 | 0.256 | 0.403 | 0.39 | 0.198 | 0.0914 | 0.0837 | 0.535 | 0.492 | 0.481 | 0.484 | 0.397
PC-14 | 0.15 | 0.303 | 0.189 | 0.159 | 0.133 | 0.723 | 0.794 | 0.404 | 0.0771 | 0.0641 | 0.201 | 0.235 | 0.106 | 0.0176 | 0.0233 | 0.503 | 0.403 | 0.154 | 0.0334 | 0.0605
NCI-H647 | 0.438 | 0.143 | 0.12 | 0.101 | 0.069 | 1.2 | 0.814 | 0.324 | 0.0759 | 0.0904 | 0.216 | 0.144 | 0.0412 | 0.0467 | 0.0528 | 0.436 | 0.39 | 0.174 | 0.0732 | 0.077
SW 1573 | 0.547 | 0.337 | 0.12 | 0.091 | 0.154 | 0.975 | 1.2 | 0.867 | 0.157 | 0.565 | 0.574 | 0.416 | 0.11 | 0.0632 | 0.0788 | 0.355 | 0.432 | 0.177 | 0.123 | 0.127
NCI-H441 | 0.312 | 0.378 | 0.216 | 0.224 | 0.202 | 0.565 | 0.463 | 0.273 | 0.154 | 0.176 | 0.573 | 0.538 | 0.265 | 0.174 | 0.168 | 0.243 | 0.255 | 0.172 | 0.125 | 0.147
NCI-H661 | 0.812 | 0.872 | 0.528 | 0.255 | 0.212 | 0.818 | 0.819 | 0.485 | 0.217 | 0.257 | 0.986 | 0.779 | 0.312 | 0.293 | 0.171 | 0.441 | 0.428 | 0.335 | 0.248 | 0.241
